{
  "source": "patent US9737523B2",
  "about": "“Anti-fibrogenic compounds, methods and uses thereof” (priority 2013, dated 2017)",
  "key": {"HACAT": {"system": "HACAT", "experiment": "MMP-1 expression in keratinocyte cell line HACAT, Western blot", "format": "cell-based, human", "conditions": "12.5 to 150 μg/ml, 48 hours", "procedure": "(§1) The squamous cell carcinoma (UMSCC) cell line derived from patients with head and neck cancer (ATCC™, Manassas, Va.) were maintained in RPMI-1640 medium with 10% FBS. The Human keratinocyte cell line HACAT (ATCC) and the carcinomic human alveolar basal epithelial cell line A549 (ATCC™) were cultured in DMEM with 10% FBS. The diploid lung fibroblasts IMR-90 (ATCC™) were maintained in Minimum Essential Medium (MEM, Invitrogen™) with 10% FBS.\n(§2) Similarly, other cells such as synoviocytes, IMR-90, keratinocytes, UMSCC and A549 were treated with kynurenine at concentrations of 12.5 to 150 μg/ml in appropriate media for each cell type as described above for 48 hours. Cells were then harvested for western blot analysis.\n(§3) Cells were harvested by Trypsin/EDTA and lysed with cell lysis buffer containing 50 mM Tris-HCl (pH7.40), 150 mM NaCl, 10 mM EDTA, 5 mM EGTA, 1% TritonX-100™, 0.5% Igepal CA-630, 0.025% NaN3 and protease inhibitor cocktail (Sigma™). Cell debris was removed by centrifugation at 20,000×g for 10 minutes. The protein concentration in supernatant was determined using the MicroBCA™ method (Pierce™, Rockford, Ill.). Proteins in supernatant were mixed with protein sample loading buffer (final concentration: 60 mM Tris-HCl (pH 6.80), 2% SDS, 10% glycerol, 1.5% β-mercaptoethanol, 0.002% bromophenol blue) and size fractioned by 10% of SDS-polyacrylamide gel. […]"}, "IMR-90": {"system": "IMR-90", "experiment": "MMP-1 expression in lung fibroblast cell line IMR-90, Western blot", "format": "cell-based, human", "conditions": "IMR-90, 12.5 μg/ml to 150 μg/ml, 48 hours", "procedure": "as §1, §2, §3"}, "splenocytes": {"system": "splenocytes", "experiment": "ConA-induced splenocyte proliferation", "format": "cell-based", "conditions": "100 and 150 μg/ml"}, "MMP-1": {"system": "MMP-1", "experiment": "MMP-1 expression in human dermal fibroblasts, Western blot", "format": "cell-based", "conditions": "for MMP-1 expression: 48 hours"}, "A549": {"system": "A549", "experiment": "MMP-1 expression in lung epithelial carcinoma cell line A549, Western blot", "format": "cell-based, human", "conditions": "A549, 12.5 to 150 μg/ml, 48 hours", "procedure": "as §1, §2, §3"}, "dermal keratinocytes": {"system": "dermal keratinocytes", "experiment": "MMP-1 expression in primary dermal keratinocytes, Western blot", "format": "cell-based, human", "conditions": "12.5 to 150 μg/ml, 48 hours", "procedure": "Human foreskin keratinocytes were established as previously described (Ghahary et al., 1998). Cells were cultured in serum-free keratinocyte medium (KSFM; Invitrogen Life Technologies™) supplemented with bovine pituitary extract (50 μg/ml) and EGF (0.2 ng/ml). These cells were used at passages 2-5.\nas §2, §3"}, "MMP-3": {"system": "MMP-3", "experiment": "MMP-3 expression in human dermal fibroblasts, Western blot", "format": "cell-based", "conditions": "various concentrations, 48 hours, dose-dependent", "procedure": "Cells were then harvested by trypsinization and western blot analysis was performed.\nCell debris was removed by centrifugation at 20,000×g for 10 minutes. The protein concentration in supernatant was determined using the MicroBCA™ method (Pierce™, Rockford, Ill.). Proteins in supernatant were mixed with protein sample loading buffer (final concentration: 60 mM Tris-HCl (pH 6.80), 2% SDS, 10% glycerol, 1.5% β-mercaptoethanol, 0.002% bromophenol blue) and size fractioned by 10% of SDS-polyacrylamide gel. After proteins were transferred onto nitrocellulose membrane by iBlot™ (Invitrogen Life Technologies™), non-specific binding were blocked with phosphate buffer saline twenty 20 (PBS-T) containing 5% skim milk for 1 hour. The membrane was then incubated with primary antibody overnight. After incubation with a secondary antibody for 1 hour, protein bands were visualized by an enhanced chemiluminescence (ECL™) detection system (Santa Cruz Biotechnology™, Santa Cruz, Calif.). […] The secondary antibodies were either goat anti-mouse IgG (H+L) HPR conjugate or goat anti-rabbit IgG (H+L) HPR conjugate (Bio-rad Laboratory™ (Mississauga, ON, Canada). Secondary antibodies were used at a concentration of 1:3000."}},
  "data": [
    {"smiles": "Nc1ccccc1C(=O)CC(N)C(=O)O", "note": "(racemic) [kynurenine]", "values": [
      {"measurement": "MMP-1 expression versus untreated controls", "setting": "HACAT", "result": "did not significantly differ"},
      {"measurement": "MMP-1 expression", "setting": "IMR-90", "result": "up-regulated"},
      {"measurement": "reduction in conA-induced splenocyte proliferation", "setting": "splenocytes; after 48 hours", "result": "about 2 fold"},
      {"measurement": "reduction in conA-induced splenocyte proliferation", "setting": "splenocytes; after 96 hours", "result": "~5", "unit": "fold"},
      {"measurement": "MMP1 protein expression 48 hours after treatment removal", "setting": "MMP-1; 100 μg/ml for 48 hours, then 48 hours after removal", "result": "gradually reduced to normal levels"},
      {"measurement": "MMP1 expression versus untreated cells after treatment removal", "setting": "MMP-1; 100 μg/ml for 48 hours, then another 24 hours after removal", "result": "remained significantly higher"},
      {"measurement": "MMP1 expression", "setting": "MMP-1; 100 μg/ml, at 48 hours after treatment", "result": "marked increase"},
      {"measurement": "MMP-1 expression", "setting": "MMP-1; 25-150 μg/ml", "result": "significantly increased"},
      {"measurement": "concentration that could stimulate MMP-1 expression (as little as)", "setting": "MMP-1; dermal fibroblasts, data not shown", "result": 12.5, "unit": "µg/mL"},
      {"measurement": "MMP-1 expression", "setting": "MMP-1; kynurenine isoforms, 50 μg/ml", "result": "increase"},
      {"measurement": "MMP-1 expression versus untreated controls", "setting": "A549", "result": "did not significantly differ"},
      {"measurement": "MMP-1 expression versus untreated controls", "setting": "dermal keratinocytes", "result": "did not significantly differ"},
      {"measurement": "MMP-3 expression", "setting": "MMP-3", "result": "significantly increased"}
    ]}
  ]
}
